Experimental data published in patent publication US10294202B2, “Pyrrolidinones as herbicides” (FMC Corporation, priority 2013, dated 2019).

Legend:
[1] = test system: foxtail, giant; test: Test C pre-/postemergence herbicide test; format: in vivo, Setaria faberii; details: Preemergence; for Plant response rating (scale of 0 to 100), Foxtail, Giant: 250 g ai/ha
How it was run: (§1)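 Pre-emergence: seeds sown in loam/sand blend and treated with compound in surfactant-containing solvent. Post-emergence: plants at 2–18 cm (1- to 4-leaf stage) in peat-based medium sprayed with the same formulation. Visual rating versus controls after 13–15 days in greenhouse, scale 0 (no effect) to 100 (complete control).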

[2] = test system: velvetleaf; test: Test C pre-/postemergence herbicide test; format: in vivo, Abutilon theophrasti; details: Preemergence; for Plant response rating (scale of 0 to 100), Velvetleaf: 250 g ai/ha
How it was run: as §1

[3] = test system: giant foxtail; test: Test A pre-/postemergence herbicide test; format: in vivo, Setaria faberii
How it was run: (§2)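 Seeds in loam–sand blend received preemergence directed soil spray; separately, plants 2–10 cm at one- to two-leaf stage received postemergence spray, both with test chemicals in non-phytotoxic solvent with surfactant. After ~10 days in greenhouse, injury rated visually against untreated controls, 0 (no effect) to 100 (complete control).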

[4] = test system: galium; test: Test C pre-/postemergence herbicide test; format: in vivo, Galium aparine; details: Preemergence; for Plant response rating (scale of 0 to 100), Galium: 250 g ai/ha
How it was run: as §1

[5] = test system: barnyardgrass; test: Test C pre-/postemergence herbicide test; format: in vivo, Echinochloa crus-galli; details: Preemergence; for Plant response rating (scale of 0 to 100; 0 is no effect, 100 is complete control), Barnyardgrass: 250 g ai/ha
How it was run: as §1

[6] = test system: lambsquarters; test: Test C pre-/postemergence herbicide test; format: in vivo, Chenopodium album; details: Preemergence; for Plant response rating (scale of 0 to 100), Lambsquarters: 250 g ai/ha
How it was run: as §1

[7] = test system: pigweed; test: Test A pre-/postemergence herbicide test; format: in vivo, Amaranthus retroflexus
How it was run: as §2

[8] = test system: waterhemp; test: Test C pre-/postemergence herbicide test; format: in vivo, Amaranthus rudis; details: Preemergence; for Plant response rating (scale of 0 to 100), Waterhemp: 250 g ai/ha
How it was run: as §1

[9] = test system: morningglory; test: Test C pre-/postemergence herbicide test; format: in vivo, Ipomoea coccinea; details: Preemergence; for Plant response rating (scale of 0 to 100), Morningglory: 250 g ai/ha
How it was run: as §1

[10] = test system: crabgrass, large; test: Test C pre-/postemergence herbicide test; format: in vivo, Digitaria sanguinalis; details: Preemergence; for Plant response rating (scale of 0 to 100), Crabgrass, Large: 250 g ai/ha
How it was run: as §1

[11] = test system: barnyardgrass; test: Test A pre-/postemergence herbicide test; format: in vivo, Echinochloa crus-galli
How it was run: as §2

[12] = 31 g ai/ha, scale 0 to 100, 0 is no effect and 100 is complete control
[13] = 62 g ai/ha, scale 0 to 100 (0 no effect, 100 complete control)
[14] = 125 g ai/ha, scale 0 to 100 (0 no effect, 100 complete control)
[15] = Postemergence, 125 g ai/ha, 0 to 100 scale, 0 is no effect, 100 is complete control
[16] = Postemergence, 500 g ai/ha, 0 to 100 scale (0 no effect, 100 complete control)
[17] = Preemergence, 125 g ai/ha, 0 to 100 scale where 0 is no effect and 100 is complete control
[18] = preemergence, 500 g ai/ha, 0 to 100 scale, 0 is no effect and 100 is complete control
[19] = Postemergence, 125 g ai/ha, 0 to 100 scale, 0 no effect, 100 complete control
[20] = Preemergence, 125 g ai/ha, visual rating on 0 to 100 scale (0 no effect, 100 complete control)
[21] = preemergence, 500 g ai/ha, 0 to 100 scale
[22] = Postemergence, 1000 g ai/ha, 0 to 100 scale (0 no effect, 100 complete control)
[23] = preemergence, 1000 g ai/ha, 0 to 100 scale

O=C1NCC(c2cccc(C(F)(F)F)c2)C1C(=O)Nc1cccc(F)c1F (centres unmarked) [Compound 241]
90: Foxtail, Giant plant response rating [1, 12] | Plant response rating, Foxtail, Giant [3, 16] | Plant response rating, Foxtail, Giant [3, 17] | Plant response rating, Foxtail, Giant [3, 18] | Barnyardgrass plant response rating [5, 12] | Plant response rating, Barnyardgrass [11, 16] | Plant response rating, Barnyardgrass [11, 18]
10: Plant response rating, Lambsquarters [6, 14] | Plant response rating, Morningglory [9, 14]
40: Plant response rating (scale of 0 to 100), Velvetleaf [2] | Waterhemp plant response rating [8, 13]
45: Plant response rating, Waterhemp [8, 14]
98: Plant response rating, Crabgrass, Large [10, 14]
95: Foxtail, Giant plant response rating [1, 13] | Plant response rating, Foxtail, Giant [1, 14] | Plant response rating (scale of 0 to 100), Foxtail, Giant [1] | Plant response rating, Barnyardgrass ([5]; 62 g ai/ha, scale 0 to 100) | Plant response rating, Barnyardgrass [5, 14] | Plant response rating (scale of 0 to 100; 0 is no effect, 100 is complete control), Barnyardgrass [5] | Crabgrass, Large plant response rating [10, 12] | Crabgrass, Large plant response rating [10, 13]
100: Plant response rating (scale of 0 to 100), Lambsquarters [6] | Plant response rating (scale of 0 to 100), Crabgrass, Large [10]
20: Galium plant response rating [4, 12] | Plant response rating, Pigweed [7, 16]
30: Plant response rating, Pigweed [7, 18] | Plant response rating (scale of 0 to 100), Morningglory [9]
85: Plant response rating, Galium [4, 14] | Plant response rating (scale of 0 to 100), Galium [4]
25: Waterhemp plant response rating [8, 12]
0: Velvetleaf plant response rating [2, 12] | Velvetleaf plant response rating [2, 13] | Lambsquarters plant response rating [6, 12] | Lambsquarters plant response rating [6, 13] | Plant response rating, Pigweed [7, 15] | Plant response rating, Pigweed [7, 17] | Morningglory plant response rating [9, 12] | Morningglory plant response rating [9, 13]
80: Plant response rating, Foxtail, Giant [3, 15] | Galium plant response rating [4, 13] | Plant response rating, Barnyardgrass [11, 15] | Plant response rating, Barnyardgrass [11, 17]
60: Plant response rating (scale of 0 to 100), Waterhemp [8]
5: Plant response rating, Velvetleaf [2, 14]

O=C1NCC(c2ccc(F)c(C(F)(F)F)c2)C1C(=O)Nc1ccccc1C(F)(F)F (racemic) [Compound 78]
0: Morningglory plant response rating [9, 12] | Plant response rating, Morningglory ([9]; 62 g ai/ha, scale 0 to 100) | Plant response rating, Morningglory [9, 14] | Plant response rating (scale of 0 to 100), Morningglory [9]
95: Plant response rating, Foxtail, Giant ([1]; 62 g ai/ha, scale 0 to 100) | Plant response rating, Foxtail, Giant [1, 14] | Plant response rating (scale of 0 to 100; 0 is no effect, 100 is complete control), Barnyardgrass [5] | Crabgrass, Large plant response rating [10, 12]
40: Plant response rating, Lambsquarters ([6]; 62 g ai/ha, scale 0 to 100)
75: Plant response rating, Barnyardgrass ([5]; 62 g ai/ha, scale 0 to 100) | Plant response rating, Waterhemp ([8]; 62 g ai/ha, scale 0 to 100)
15: Velvetleaf plant response rating [2, 12] | Plant response rating, Velvetleaf ([2]; 62 g ai/ha, scale 0 to 100)
98: Plant response rating (scale of 0 to 100), Foxtail, Giant [1] | Plant response rating, Crabgrass, Large ([10]; 62 g ai/ha, scale 0 to 100) | Plant response rating, Crabgrass, Large [10, 14] | Plant response rating (scale of 0 to 100), Crabgrass, Large [10]
90: Foxtail, Giant plant response rating [3, 20] | Plant response rating, Foxtail, Giant [3, 21] | Plant response rating, Barnyardgrass ([11]; preemergence, 500 g ai/ha, 0 to 100 scale (0 no effect, 100 complete control))
60: Plant response rating, Galium [4, 14] | Barnyardgrass plant response rating [5, 12] | Plant response rating, Pigweed [7, 21]
10: Pigweed plant response rating [7, 20]
20: Plant response rating, Velvetleaf [2, 14] | Plant response rating (scale of 0 to 100), Velvetleaf [2]
85: Foxtail, Giant plant response rating [1, 12] | Plant response rating (scale of 0 to 100), Galium [4] | Plant response rating, Barnyardgrass [5, 14] | Plant response rating, Lambsquarters [6, 14] | Plant response rating (scale of 0 to 100), Lambsquarters [6] | Plant response rating, Waterhemp [8, 14] | Plant response rating (scale of 0 to 100), Waterhemp [8]
70: Plant response rating, Barnyardgrass [11, 16]
50: Galium plant response rating [4, 12] | Plant response rating, Galium ([4]; 62 g ai/ha, scale 0 to 100) | Plant response rating, Pigweed [7, 19] | Plant response rating, Pigweed [7, 16] | Waterhemp plant response rating [8, 12] | Plant response rating, Barnyardgrass [11, 19]
80: Plant response rating, Foxtail, Giant [3, 19] | Plant response rating, Foxtail, Giant [3, 16] | Barnyardgrass plant response rating [11, 20]

O=C(Nc1ccccc1F)C1C(=S)NCC1c1cccc(C(F)(F)F)c1 (centres unmarked) [Compound 274]
98: Plant response rating, Crabgrass, Large [10, 14]
100: Plant response rating (scale of 0 to 100), Crabgrass, Large [10]
80: Foxtail, Giant plant response rating [1, 12] | Plant response rating, Galium [4, 14]
90: Plant response rating, Foxtail, Giant [1, 14] | Plant response rating, Foxtail, Giant [3, 22] | Plant response rating, Foxtail, Giant [3, 23] | Plant response rating (scale of 0 to 100; 0 is no effect, 100 is complete control), Barnyardgrass [5] | Crabgrass, Large plant response rating [10, 13] | Plant response rating, Barnyardgrass [11, 22] | Plant response rating, Barnyardgrass ([11]; preemergence, 1000 g ai/ha, 0 to 100 scale (0 no effect, 100 complete control))
85: Foxtail, Giant plant response rating [1, 13] | Plant response rating, Barnyardgrass [5, 14] | Crabgrass, Large plant response rating [10, 12]
20: Velvetleaf plant response rating [2, 13] | Plant response rating, Velvetleaf [2, 14] | Plant response rating (scale of 0 to 100), Velvetleaf [2] | Plant response rating, Pigweed [7, 22]
0: Velvetleaf plant response rating [2, 12] | Galium plant response rating [4, 12] | Galium plant response rating [4, 13] | Lambsquarters plant response rating [6, 13] | Plant response rating (scale of 0 to 100), Lambsquarters [6] | Plant response rating, Pigweed ([7]; Postemergence, 125 g ai/ha, visual rating on 0 to 100 scale (0 no effect, 100 complete control), approx. 10 days) | Plant response rating, Pigweed [7, 23] | Waterhemp plant response rating [8, 12] | Waterhemp plant response rating [8, 13] | Plant response rating (scale of 0 to 100), Waterhemp [8] | Morningglory plant response rating [9, 12] | Morningglory plant response rating [9, 13] | Plant response rating, Morningglory [9, 14] | Plant response rating (scale of 0 to 100), Morningglory [9]
55: Barnyardgrass plant response rating [5, 12]
95: Plant response rating (scale of 0 to 100), Foxtail, Giant [1]
65: Barnyardgrass plant response rating [5, 13]
